Laboratory results published in the NIST ThermoML archive (doi:10.1016/j.jct.2007.03.002).
Several values for one entry are separate records, joined by “and”; a condition that tells them apart may be missing. Equal entries are not always repeated. Numbers after ± are expanded uncertainties.

Columns and labels:
[1] = molar enthalpy of vaporization or sublimation; settings: 298.15 K; Crystal; Static calorimetry
[2] = Crystal; for vapor or sublimation pressure: Calculated from knudsen effusion weight loss; for Normal melting temperature: DTA
[3] = molar heat capacity at constant pressure; settings: 298.15 K; 101.33 kPa; Crystal; Drop calorimetry
[4] = Molar enthalpy of transition or fusion; settings: Crystal; DSC

SMILES	molar enthalpy [1]	vapor or sublimation pressure ([2]; 313 K)	vapor or sublimation pressure ([2]; 316 K)	vapor or sublimation pressure ([2]; 319 K)	vapor or sublimation pressure ([2]; 322 K)	Normal melting temperature [2]	molar heat capacity at constant pressure [3]	Molar enthalpy of transition or fusion [4]	mass density ([2]; 298.15 K, 101.33 kPa, mass and size of pellet)
OCc1ccccc1-c1ccccc1 [2-biphenylmethanol]	107 ± 1.3 kJ/mol	0.0001171 ± 3.5e-05 kPa and 0.0001179 ± 3.6e-05 kPa	0.0001736 ± 5.2e-05 kPa	0.0002555 ± 7.7e-05 kPa and 0.0002537 ± 7.7e-05 kPa	0.0003732 ± 0.00011 kPa and 0.0003682 ± 0.00011 kPa	49.2 ± 0.7 °C	268.98 ± 22 J/K/mol	19.7 ± 0.5 kJ/mol	–
OCc1ccc(-c2ccccc2)cc1 [4-biphenylmethanol]	107 ± 3.6 kJ/mol	–	–	–	–	100.6 ± 0.7 °C	256.08 ± 66 J/K/mol	27 ± 0.6 kJ/mol	1390 ± 360 kg/m3
